Values after ≈ are worked out from the molar mass of the structure shown. Values joined by “and” are separate entries in the source; they are usually repeats but may differ in a detail not shown here. Equal values may be shown once. Read-outs that look alike come from different tables or passages of the source.
Columns and labels:
[1] = Solubility in 0.1 M pH 7.0 phosphate buffer (bioassay and UV-assay); format: physicochemical; settings: for Solubility, UV (UV-assay): 240 min; for solubility at 4 h: 0.1 m phosphate buffer, pH 7, aqueous buffer
Protocol: *Stirred at 25° C. for 4 hours in 0.1 M pH 7.0 phosphate
buffer--filtered through Milipore filter (0.45 μ)--assayed
spectroscopically against its own standard.
The test solution and the standard solution are prepared as described below.
About 10 mg. (1) of a sample is placed in a vial and mixed with 1 ml. of 0.1 M phosphate buffer (pH 7.0). The vial is stoppered, sealed with a metal cap, placed on a rotary shaker and agitated at 160 rpm for 4 hr. at 25° C. The solution is filtered through a Millipore filter (HAWP 01300, mean pore size 0.45 μm). The filtrate is diluted to use for bioassay and UV assay as follows:
About 2 mg. of the same sample is weighed precisely and dissolved in 4 ml. of 1% K2 CO3 solution^(3) (usually within one minute). The solution is diluted exactly to 50 ml. in a flask with 0.1 M pH 7.0 phosphate buffer and used for the preparation of the standard solutions for bioassay and UV-assay as follows:
(1) A 20 mg. or more sample is used when the sample is expected to be more soluble.
(2) 0.1 M pH 7.0 phosphate buffer is used as a diluent in the present test and also as a reference solution in UV-assay.
(3) It was previously confirmed that almost the same result is obtained when the sample is solubilized in DMSO (dimethylsulfoxide) and then diluted similarily with the buffer.
(4) Volume of the solution is measured precisely with an appropriate pipette or flask.
BA: Bioassay, UV: UV-assay Results given for the same compound on different lines were obtained using samples from different lots.

[2] = tested on: S. aureus Russel; assay: M.I.C. by Tube Dilution, S. aureus Russel; format: cell-based; settings: Nutrient Broth, overnight at 37° C.; for MIC: Staphylococcus aureus
[3] = tested on: S. aureus BX1633 A9606; assay: M.I.C. by Tube Dilution, S. aureus BX1633 A9606; format: cell-based; settings: Nutrient Broth, overnight at 37° C.; for MIC: Staphylococcus aureus, BX1633A9606, S. aureus BX1633 A9606
[4] = tested on: Str. pyogenes A9604; assay: M.I.C. by Tube Dilution, Str. pyogenes A9604; format: cell-based; settings: Streptococcus pyogenes; Str. pyogenes A9604 + 5% serum; 50% Nutrient Broth - 45% Antibiotic Assay Broth; overnight at 37° C.
[5] = tested on: Mycobacterium 607; assay: M.I.C. by Tube Dilution, Mycobacterium 607; format: cell-based; settings: overnight at 37° C.
[6] = tested on: E. coli NIHJ; assay: M.I.C. by Tube Dilution, E. coli NIHJ; format: cell-based; settings: Escherichia coli, overnight at 37° C.
[7] = tested on: E. coli ATCC 8739; assay: M.I.C. by Tube Dilution, E. coli ATCC 8739; format: cell-based; settings: Escherichia coli, ATCC8739, overnight at 37° C.
[8] = tested on: E. coli Juhl A15119; assay: M.I.C. by Tube Dilution, E. coli Juhl A15119; format: cell-based; settings: Escherichia coli, JUHLA15119, 10^-4 dilution, overnight at 37° C.
[9] = tested on: K. pneumoniae A9977; assay: M.I.C. by Tube Dilution, K. pneumoniae A9977; format: cell-based; settings: Klebsiella pneumoniae, 10^-4 dilution, overnight at 37° C.
[10] = tested on: K. pneumoniae A15130; assay: M.I.C. by Tube Dilution, K. pneumoniae A15130; format: cell-based; settings: Klebsiella pneumoniae, 10^-4 dilution, overnight at 37° C.
[11] = tested on: Pr. mirabilis A9900; assay: M.I.C. by Tube Dilution, Pr. mirabilis A9900; format: cell-based; settings: Proteus mirabilis, 10^-4 dilution, overnight at 37° C.
[12] = tested on: Pr. morganii A15153; assay: M.I.C. by Tube Dilution, Pr. morganii A15153; format: cell-based; settings: Morganella morganii, 10^-4 dilution, overnight at 37° C.
[13] = tested on: Sal. enteritidis A9531; assay: M.I.C. by Tube Dilution, Sal. enteritidis A9531; format: cell-based; settings: Salmonella enterica, 10^-4 dilution, overnight at 37° C.
[14] = tested on: Ser. marcescens A20019; assay: M.I.C. by Tube Dilution, Ser. marcescens A20019; format: cell-based; settings: Serratia marcescens, 10^-4 dilution, overnight at 37° C.
[15] = tested on: Ps. aeruginosa A9843; assay: M.I.C. by Tube Dilution, Ps. aeruginosa A9843; format: cell-based; settings: Pseudomonas aeruginosa, 10^-4 dilution, overnight at 37° C.
[16] = tested on: S. aureus BX-1633; assay: Minimum curative dose in infected mice, S. aureus BX-1633; format: in vivo; settings: Staphylococcus aureus, BX1633, sc; subcutaneous, mice infected with lethal dose of S. aureus BX-1633; read-out: CD50 (minimum curative dose for 50% of the mice)
[17] = tested on: E coli Juhl; assay: Minimum curative dose in infected mice, E coli Juhl; format: in vivo; settings: Mus musculus, sc; subcutaneous, mice infected with lethal dose of E coli Juhl; read-out: CD50 (minimum curative dose for 50% of the mice)
[18] = tested on: S. aureus Smith A9537; assay: M.I.C. by Tube Dilution, S. aureus Smith A9537; format: cell-based; settings: Staphylococcus aureus, 10^-4 dilution, overnight at 37° C.
[19] = tested on: D. pneumoniae A9585; assay: M.I.C. by Tube Dilution, D. pneumoniae A9585; format: cell-based; settings: Streptococcus pneumoniae, A9585, D. pneumoniae A9585 + 5% serum; 50% Nutrient Broth - 45% Antibiotic Assay Broth; overnight at 37° C.
[20] = 0.1 M phosphate buffer (pH 7.0), 4 hr. at 25° C., UV-assay
[21] = 0.1 M phosphate buffer (pH 7.0), 4 hr. at 25° C., UV-assay, read-out: Solubility, UV (UV-assay)
[22] = 0.1 M phosphate buffer (pH 7.0), 4 hr. at 25° C., bioassay, read-out: Solubility, BA (bioassay)
[23] = stirred at 25° C. for 4 hours in 0.1 M pH 7.0 phosphate buffer, assayed spectroscopically against its own standard, read-out: Solubility
[24] = UV-assay, read-out: Solubility (UV)
[25] = bioassay, read-out: Solubility (BA)

Compound: NCc1ccccc1CC(=O)NC1C(=O)N2C(C(=O)O)=C(CSc3ccc4nnc(O)n4n3)CSC12 (stereo not shown) [BB-S207, reference compound]
- Solubility, UV (UV-assay) [1, 20]: 3.6 mg/mL (≈ 6.82 mM)
- solubility at 4 h [1, 21]: 3.9 mg/mL (≈ 7.39 mM)
- solubility at 4 h [1, 22]: 4.2 mg/mL (≈ 7.96 mM)
- solubility at 4 h [1, 23]: 3.6 mg/mL (≈ 6.82 mM)

Compound: NCC1=C(CC(=O)NC2C(=O)N3C(C(=O)O)=C(CSc4ccc(O)nn4)CS[C@H]23)CCCC1 (stereo partly drawn) [Example 1, 7-[α-(2-aminomethyl-1-cyclohexenyl)acetamido]-3-(6-hydroxypyridazin-3-ylthiomethyl)-3-cephem-4-carboxylic acid]
- solubility at 4 h [1, 21]: 16 mg/mL (≈ 32.5 mM)
- solubility at 4 h [1, 22]: 16.8 mg/mL (≈ 34.2 mM)
- solubility at 4 h [1, 23]: 16 to 16.8 mg/mL (≈ 32.5 to 34.2 mM)

Compound: NCC1=C(CC(=O)NC2C(=O)N3C(C(=O)O)=C(CSc4ccc5nnnn5n4)CSC23)CCCC1 (stereo not drawn) [Example 2, 7-[α-(2-aminomethyl-1-cyclohexenyl)acetamido]-3-(pyradazino[2,3-d]tetrazol-6-ylthiomethyl)-3-cephem-4-carboxylic acid]
- solubility at 4 h [1, 21]: 3 mg/mL (≈ 5.81 mM)
- solubility at 4 h [1, 22]: 3 mg/mL (≈ 5.81 mM)
- solubility at 4 h [1, 23]: 3 mg/mL (≈ 5.81 mM)

Compound: Cc1nnc(SCC2=C(C(=O)O)N3C(=O)C(NC(=O)Cc4ccccc4CN)C3SC2)s1 (stereo not shown) [MR-S96, reference compound]
- solubility at 4 h [1, 21]: 0.9 mg/mL (≈ 1.83 mM)
- solubility at 4 h [1, 22]: 1.2 mg/mL (≈ 2.44 mM)
- solubility at 4 h [1, 23]: 0.9 mg/mL (≈ 1.83 mM)

Compound: Cc1nnc(SCC2=C(C(=O)O)N3C(=O)C(NC(=O)CC4=C(CN)CCCC4)[C@H]3SC2)s1 (stereo partly drawn) [Example 4, 7-[α-(2-aminomethyl-1-cyclohexenyl)acetamido]-3-(5-methyl-1,3,4-thiadiazol-2-ylthiomethyl)-3-cephem-4-carboxylic acid]
- solubility at 4 h [1, 21]: 4.6 mg/mL (≈ 9.28 mM)
- solubility at 4 h [1, 22]: 4.3 mg/mL (≈ 8.68 mM)
- solubility at 4 h [1, 23]: 4.3 to 4.6 mg/mL (≈ 8.68 to 9.28 mM)

Compound: CC1=C(C(=O)O)N2C(=O)C(NC(=O)CC3=C(CN)CCCC3)C2SC1 (stereo not drawn) [Example 17, 7-[α-(2-Aminomethyl-1-cyclohexenyl)acetamido]desacetoxycephalosporanic acid]
- solubility at 4 h [1, 24]: 3.3 mg/mL (≈ 9.03 mM)
- solubility at 4 h [1, 25]: 4.1 mg/mL (≈ 11.2 mM)
- M.I.C. ([2]; listed as 6x): 12.5 Mcg./ml.
- MIC [2]: > 12.5 mg/L
- M.I.C. ([3]; S. aureus BX1633 A9606, listed as 6x): 25 Mcg./ml.
- MIC [3]: > 12.5 mg/L
- MIC [4]: 1.25 to 2.5 mg/L
- MIC [5]: > 100 mg/L
- MIC [6]: > 100 mg/L
- MIC [7]: > 100 mg/L
- MIC [8]: > 100 mg/L
- MIC [9]: > 100 mg/L
- MIC [10]: > 100 mg/L
- MIC [11]: > 100 mg/L
- MIC [12]: > 100 mg/L
- MIC [13]: > 100 mg/L
- MIC [14]: > 100 mg/L
- MIC [15]: > 100 mg/L

Compound: Cn1nnnc1SCC1=C(C(=O)O)N2C(=O)C(NC(=O)Cc3ccccc3CN)C2SC1 (stereo not shown) [MR-S94, reference compound]
- solubility at 4 h [1, 21]: 1.9 mg/mL (≈ 4 mM)
- solubility at 4 h [1, 22]: 2 mg/mL (≈ 4.21 mM)
- solubility at 4 h [1, 23]: 1.9 mg/mL (≈ 4 mM)
- ED50 [16]: 3.4 mg/kg
- ED50 [17]: 4.4 mg/kg

Compound: NCC1=C(CC(=O)NC2C(=O)N3C(C(=O)O)=C(CSc4ccc5nnc(O)n5n4)CSC23)CCCC1 (stereo not drawn) [Example 5, 7-[α-(2-Aminomethyl-1-cyclohexenyl)acetamido]-3-(3-hydroxypyridazino-[3,2-c]-3-triazol-6-ylthiomethyl)-3-cephem-4-carboxylic acid]
- solubility at 4 h [1, 21]: 8.1 mg/mL (≈ 15.2 mM)
- solubility at 4 h [1, 22]: 8 mg/mL (≈ 15 mM)
- solubility at 4 h [1, 23]: 8 mg/mL (≈ 15 mM)

Compound: CC(=O)OCC1=C(C(=O)O)N2C(=O)C(NC(=O)CC3=C(CN)CCCC3)C2SC1 (stereo not drawn) [Example 16, 7-[α-(2-Aminomethy-1-cyclohexenyl)acetamido]cephalosporanic acid]
- solubility at 4 h [1, 24]: 5.3 mg/mL (≈ 12.5 mM)
- solubility at 4 h [1, 25]: 5.4 mg/mL (≈ 12.8 mM)
- MIC ([18]; SMITHA9537, S. aureus Smith A9537 + 50% serum): 3.1 mg/L
- MIC ([18]; SMITHA9537, S. aureus Smith A9537, Nutrient Broth): 0.8 mg/L (≈ 0.00189 mM)
- MIC [2]: 0.8 to 1.6 mg/L (≈ 0.00189 to 0.00378 mM)
- MIC [3]: 3.1 mg/L (≈ 0.00732 mM)
- MIC [19]: 0.16 to 0.31 mg/L
- MIC [5]: > 100 mg/L
- MIC [6]: 25 to 50 mg/L (≈ 0.059 to 0.118 mM)
- MIC [7]: 25 mg/L (≈ 0.059 mM)
- MIC [8]: 25 mg/L (≈ 0.059 mM)
- MIC [9]: 12.5 to 25 mg/L (≈ 0.0295 to 0.059 mM)
- MIC [10]: 12.5 to 50 mg/L (≈ 0.0295 to 0.118 mM)
- MIC [11]: 50 mg/L (≈ 0.118 mM)
- MIC [12]: > 100 mg/L
- MIC [13]: 12.5 mg/L (≈ 0.0295 mM)
- MIC [14]: > 100 mg/L
- MIC [15]: > 100 mg/L

Compound: NCc1ccccc1CC(=O)NC1C(=O)N2C(C(=O)O)=C(CSc3ccc4nnnn4n3)CSC12 (stereo not shown) [BB-S226, reference compound]
- Solubility, UV (UV-assay) [1, 20]: 2.1 mg/mL and 3.5 mg/mL and 2.2 mg/mL
- solubility at 4 h [1, 21]: 2.5 mg/mL (≈ 4.88 mM)
- solubility at 4 h [1, 22]: 3.8 mg/mL (≈ 7.41 mM)
- solubility at 4 h [1, 23]: 3.5 mg/mL (≈ 6.83 mM)

Compound: NCc1ccccc1CC(=O)NC1C(=O)N2C(C(=O)O)=C(CSc3ccc(O)nn3)CSC12 (stereo not shown) [BB-S150, reference compound]
- solubility at 4 h [1, 21]: 4.4 mg/mL (≈ 9.02 mM)
- solubility at 4 h [1, 22]: 4.4 mg/mL (≈ 9.02 mM)
- solubility at 4 h [1, 23]: 4.4 mg/mL (≈ 9.02 mM)

Source: US3946000A, “7-[α-(2-Aminomethyl-1-cyclohexenyl)-acetamido]-3-heterocyclic thiomethyl-3-cephem-4-carboxylic acids” (Bristol-Myers Company, priority 1973, dated 1976)
